Test results reported in ChEMBL document CHEMBL3751723, “Discovery of highly potent dual EP(2) and EP(3) agonists with subtype selectivity” (Bioorg Med Chem Lett, 2016).
pEC50, pKi: −log10 of the molar value.

Tests used:
[1] = target: Prostaglandin E2 receptor EP2 subtype (Homo sapiens, UniProt P43116); experiment: Agonist activity at human EP2 receptor
[2] = target: T1, Prostaglandin E2 receptor EP3 subtype (Homo sapiens, UniProt P43115); experiment: Agonist activity at human EP3 receptor
T1 sequence (P43115 whole entry): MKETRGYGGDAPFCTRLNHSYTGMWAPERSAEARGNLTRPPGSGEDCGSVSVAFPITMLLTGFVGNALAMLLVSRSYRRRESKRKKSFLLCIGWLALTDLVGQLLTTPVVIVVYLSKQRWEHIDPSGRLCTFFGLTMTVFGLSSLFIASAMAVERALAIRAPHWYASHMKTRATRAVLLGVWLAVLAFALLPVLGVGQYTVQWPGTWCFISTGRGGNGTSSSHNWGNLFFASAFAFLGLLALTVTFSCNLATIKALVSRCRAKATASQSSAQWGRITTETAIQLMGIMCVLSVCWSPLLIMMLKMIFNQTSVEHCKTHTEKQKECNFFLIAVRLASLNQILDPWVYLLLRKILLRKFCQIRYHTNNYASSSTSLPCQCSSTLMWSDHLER

[3] = target: Prostaglandin E2 receptor EP4 subtype (Homo sapiens, UniProt P35408); experiment: Agonist activity at human EP4 receptor
[4] = target: T2, Prostaglandin E2 receptor EP1 subtype (Homo sapiens, UniProt P34995); experiment: Binding affinity to human EP1 receptor
T2 sequence (P34995 whole entry): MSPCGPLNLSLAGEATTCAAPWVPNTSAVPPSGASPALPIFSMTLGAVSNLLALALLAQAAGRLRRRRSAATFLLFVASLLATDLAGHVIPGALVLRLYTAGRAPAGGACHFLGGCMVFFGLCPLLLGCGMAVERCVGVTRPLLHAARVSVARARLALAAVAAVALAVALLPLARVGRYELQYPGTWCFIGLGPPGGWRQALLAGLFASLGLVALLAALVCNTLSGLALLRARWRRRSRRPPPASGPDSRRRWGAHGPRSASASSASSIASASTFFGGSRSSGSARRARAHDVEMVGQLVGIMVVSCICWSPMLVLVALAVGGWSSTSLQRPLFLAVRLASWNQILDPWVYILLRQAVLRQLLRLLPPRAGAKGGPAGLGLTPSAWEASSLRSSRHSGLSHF

[5] = Clearance in rat at 0.01 mg/kg, iv; format: ADME, organism-based; conditions: in vivo
[6] = Half life in rat at 0.01 mg/kg, iv; format: ADME, organism-based; conditions: in vivo
[7] = AUC in rat at 1 mg/kg, po; format: ADME, organism-based; conditions: in vivo
[8] = Oral bioavailability in rat at 1 mg/kg; format: ADME, organism-based; conditions: in vivo

Chain of Prostaglandin E2 receptor EP4 subtype (P35408 whole entry): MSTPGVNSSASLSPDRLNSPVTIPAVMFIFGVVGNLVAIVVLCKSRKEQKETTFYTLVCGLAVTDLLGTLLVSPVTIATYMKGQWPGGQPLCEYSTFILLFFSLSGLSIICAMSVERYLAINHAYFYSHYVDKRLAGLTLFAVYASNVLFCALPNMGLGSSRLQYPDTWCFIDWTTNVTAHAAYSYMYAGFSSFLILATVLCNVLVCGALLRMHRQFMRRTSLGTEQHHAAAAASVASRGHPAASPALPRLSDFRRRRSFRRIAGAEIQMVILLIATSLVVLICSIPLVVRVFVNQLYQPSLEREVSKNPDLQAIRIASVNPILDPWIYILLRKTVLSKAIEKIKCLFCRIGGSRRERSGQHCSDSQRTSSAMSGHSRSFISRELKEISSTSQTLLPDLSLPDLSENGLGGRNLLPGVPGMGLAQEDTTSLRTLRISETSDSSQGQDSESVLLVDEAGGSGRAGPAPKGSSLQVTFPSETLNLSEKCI
Chain of Prostaglandin E2 receptor EP2 subtype (P43116 whole entry): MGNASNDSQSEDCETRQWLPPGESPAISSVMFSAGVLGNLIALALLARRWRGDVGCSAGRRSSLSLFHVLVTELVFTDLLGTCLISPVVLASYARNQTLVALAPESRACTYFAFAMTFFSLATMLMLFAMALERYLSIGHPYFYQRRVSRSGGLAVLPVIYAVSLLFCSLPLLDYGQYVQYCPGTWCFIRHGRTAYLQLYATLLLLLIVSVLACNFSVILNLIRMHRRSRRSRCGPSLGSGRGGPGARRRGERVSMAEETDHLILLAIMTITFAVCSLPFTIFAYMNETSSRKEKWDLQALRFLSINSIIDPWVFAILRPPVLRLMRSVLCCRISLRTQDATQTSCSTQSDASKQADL

| SMILES | pEC50 [1] | pEC50 [2] | pEC50 [3] | pKi [4] | clearance [5] [mL/min/kg] | half-life [6] [h] | AUC [7] [ng·h/mL] | bioavailability [8] [%] |
| --- | --- | --- | --- | --- | --- | --- | --- | --- |
| O=C(O)c1csc(SCCN2C(=O)OC[C@@H]2/C=C/[C@@H](O)C2(CCCCF)CCC2)n1 | 8.54 | 8.00 | 6.71 | 5.97 | 9.5 | 4.4 | 41 | 2.5 |
| CCCCC(C)(C)[C@H](O)/C=C/[C@H]1CCC(=O)N1CCSc1nc(C(=O)O)cs1 | 9.04 | 8.08 | 8.38 |  |  |  |  |  |
| CC(C)(CCCCF)[C@H](O)/C=C/[C@H]1COC(=O)N1CCSc1nc(C(=O)O)cs1 | 8.24 | 8.33 | 5.91 | 6.37 |  |  |  |  |
| CC(C)(C)CCC1([C@H](O)/C=C/[C@H]2COC(=O)N2CCSc2nc(C(=O)O)cs2)CCC1 | 5.43 | 8.17 | 5.33 | 6.83 |  |  |  |  |
| CCCCC1([C@H](O)/C=C/[C@H]2COC(=O)N2CCSc2nc(C(=O)O)cs2)CCC1 | 8.54 | 8.41 | 7.14 | 6.66 |  |  |  |  |
| CC#CCC1([C@H](O)/C=C/[C@H]2COC(=O)N2CCSc2nc(C(=O)O)cs2)CCC1 | 7.68 | 7.74 | 6.62 | 7.05 |  |  |  |  |
| O=C(O)c1csc(SCCN2C(=O)OC[C@@H]2/C=C/[C@@H](O)C2(CCc3ccccc3)CCC2)n1 | 6.80 | 7.57 | 6.33 | 6.10 |  |  |  |  |
| COCCCC1([C@H](O)/C=C/[C@H]2COC(=O)N2CCSc2nc(C(=O)O)cs2)CCC1 | 7.74 | 7.60 | 6.15 | < 5.00 |  |  |  |  |
| CCCCC(C)(C)[C@H](O)/C=C/[C@H]1COC(=O)N1CCSc1nc(C(=O)O)cs1 | 8.13 | 7.30 | 6.49 | 6.92 |  |  |  |  |
| CCOCCC1([C@H](O)/C=C/[C@H]2COC(=O)N2CCSc2nc(C(=O)O)cs2)CCC1 | 7.54 | 5.58 | 6.13 | 5.07 |  |  |  |  |
| O=C(O)c1csc(SCCN2C(=O)OC[C@@H]2/C=C/[C@@H](O)C2(CCC3CCCCC3)CCC2)n1 | 7.22 | 8.13 | 5.08 | 5.88 |  |  |  |  |
| CCCC[C@H](C)C[C@H](O)/C=C/[C@H]1CCC(=O)N1CCSc1nc(C(=O)O)cs1 | 9.41 | 6.51 | 8.52 |  |  |  |  |  |
